Source: patent publication US20240082416A1, “AMATOXIN ANALOGS AND USES THEREOF” (THE UNIVERSITY OF BRITISH COLUMBIA, priority 2020, published 2024)
Several values for one entry are separate records, joined by “and”; a condition that tells them apart may be missing. Identical values can stand only once. Starred links: 1 amine or outer side, 2 acyl side, 3 side chain; linkers in the order of their positions; H or OH if unused. Positions of bridges follow the written chain, without caps; N, C: chain ends. Non-standard residues stand in square brackets, D forms with d. Residues, ends and D or L forms follow the SMILES beside them. X4 = CC(C)(C)OC(=O)/N=C(\N)N[C@@H]1C[C@@H](C(=O)[*:2])N([*:1])C1; Trp(2-yl) = O=C([C@H](Cc1c([*:3])[nH]c2ccccc12)N[*:1])[*:2]; Ile(4R-OH,5-OH) = C[C@H]([C@H](N)C(=O)O)[C@@H](O)CO; X3 = CC(=O)NCS[C@@H]1C[C@@H](C(=O)[*:2])N([*:1])C1; X5 = COC(=O)N[C@@H]1C[C@@H](C(=O)[*:2])N([*:1])C1

Legend:
Pol II = target: T1, Pol II (Homo sapiens, UniProt P24928); assay: In vitro transcription runoff assay using HeLaScribe nuclear extract; type: biochemical; details: for IC50: IC50 (nM), Table 12, n = 3, high values estimated from activity at [I]=1.0 μM
T1 construct: HeLaScribe® nuclear extract containing Pol II and all other transcription factors; purchased Promega; host or cells: HeLa nuclear extract (endogenous protein)
Description: (h) In vitro transcription assay of synthetic amanitins containing analogs of Hyp: Primers were purchased from IDT via standard phosphoramidite chemistry. dNTP and rNTP were purchased from Thermofisher. GoTaq polymerase and HeLaScribe*Nuclear Extract in vitro Transcription System was purchased from Promega. Taq polymerase was purchased from NEB. [^32P] α-dGTP (3000 Ci/mmol 10 mCi/ml EasyTide) and [^32P] α-GTP (3000 Ci/mmol 10 mCi/ml EasyTide) were purchased from Perkin Elmer. QIAquick PCR purifcation kit was purchased from Qiagen. AcGFP1-N1 was a gift (Addgene plasmid #54705; http://n2t.net/addgene:54705; RRID:Addgene_54705). DNA Primer sequences were:
The DNA template for transcription runoff was synthesized by PCR with template pAcGFP-N1, and primers P1 and P2. To a final volume of 20 μL, 1 x GoTaq Buffer, 250 μM of each dNTP, 500 nM of each primers P1 and P2, […] pAcGFP-N1 and 0.05 U/μL GoTaq were employed to thermocycle for 30 cycles (30 s at 95° C., 30 s at 50° C. and 60 s at 72° C., Bio-Rad). A 1 μL aliquot of the amplified solution was resolved with 6×DNA loading dye in a 1% agarose gel containing […] and then visualized using GelDoc XR imager (Bio-Rad). Purification was completed via QIAquick PCR purification kit (Qiagen). The radioactive chromatographic standard was synthesized by PCR with template pAcGFP-N1, and primers P3 and P4. To a final volume of 50 μL, 1 x Thermopol Buffer, 200 μM of each dNTP, 500 nM of each primers P3 and P4, 10 pg/μL pAcGFP-N1 and 0.02 U/μL Vent polymerase, 1 μL [^32P] α-dGTP were employed to thermocycle for 30 cycles (30 s at 95° C., 30 s at 62° C. and 30 s at 72° C., Bio-Rad). A 1 μL aliquot of the amplified solution was resolved with 6×DNA loading dye in 8% denaturing PAGE and then visualized by autoradiography via the Typhoon 9200 imager (Molecular namics-Amersham-GE). Purification was completed via QIAquick PCR purification kit (Qiagen). The transcription runoff assay was modified from HeLaScribe® Nuclear Extract in vitro Transcription System (Promega). […]. The pellet was resolved by 8% denaturing PAGE and then visualized by autoradiography via the Typhoon 9200 imager (Molecular dynamics-Amersham-GE). Dosimetry was calculated by ImageJ, and the 3 parameter logistic fit was completed by Origin 2019 (OriginLab). […]
All data were presented in mean±standard deviation (n=3).

CHO cells = assay: Viability assay against CHO cells (MTT colorimetric assay); type: cell-based, Chinese hamster; details: 72 h, replicates n = 1, 2, 3
Protocol: (§1) (f) Cell culture: Cells were cultured in Minimum Essential Medium Eagle—Alpha Modification (α-MEM) or […] Dulbecco's Modified Eagle Medium (DMEM), purchased from Gibco. […] All cell culture plastic ware was obtained from Coming or Falcon. Cells were cultured at 37° C. in a humidified chamber with 5% CO2. When used in cell culture, DMSO was purified by filtration through a […] filter. All experiments were carried out in a laminar flow culture cabinet, unless otherwise noted.
(§2) Immortalized CHO cells had been stored in liquid nitrogen. To revive cells, a 1-mL tube of the frozen cells in medium containing 10% DMSO was warmed in a 30° C. water bath and diluted with 9 mL of fresh media. Media contained 10% FBS and 100 U/mL penicillin and […] streptomycin, unless otherwise indicated. The cells were incubated in a T-25 flask at 37° C. at 5% CO2. After 24 hours, the medium was aspirated and replaced with fresh medium. When cells reached a level of 90-100% confluence, they were sub-cultured. […] Once the cells were detached from the tissue culture flask, 3-5 mL media was added to quench the trypsin and the mixture was transferred to a 10 mL centrifuge tube. The mixture was centrifuged for 5 min at […], and the supernatant was discarded. The cells were suspended in fresh medium, diluted as required, and transferred to a new culture flask.
(§3) To assay cell viability, a nearly confluent tissue culture flask was trypsinized, and the cells were counted following treatment with Trypan blue, using a hemocytometer. The cells were then diluted to the appropriate stock concentrations in fresh medium and transferred in 100 μL to a 96-well plate using a multi-channel pipette. The number of cells plated varied from experiment to experiment. These were incubated at 37° C. and 5% CO2 for a 24-hour period to allow for adherence. The medium was aspirated, and fresh medium was added, which contained the desired additives in DMSO. The cells were then re-incubated for 72 h. At the completion of the experiment, a 100 μL aliquot of 25 mg/mL MTT in phosphate-buffered saline (PBS) was added to each well. The plate was incubated three hours further to allow for the formation of the formazan product in viable cells. The media was carefully aspirated, and the purple product was solubilized in DMSO. […] Data was processed in Microsoft Excel and GraphPad Prism. Experiments were performed in triplicates unless otherwise noted, and the error bars were calculated as the standard error of the mean.
(§4) Each cell line was plated in a 96-well plate, with 100 μL of the stock solution per well (5000 cells per well) and incubated for 24 hours. […] The cells were incubated for 72 hours, at which point viability was assessed as described.

[1] = as above; type: cell-based, Chinese hamster; details: Chinese hamster, CHO cells, 72 h, replicates n = 1, 2, 3, read-out: % viable cells; for viability at 72 h, 1.25e-06 M: 1.25e-006 M; for viability at 72 h, 1.56e-07 M: 1.56e-007 M; for viability at 72 h, 2.5e-06 M: 2.5e-006 M; for viability at 72 h, 5e-06 M: 5e-006 M; for viability at 72 h, 6.25e-07 M: 6.25e-007 M; for viability at 72 h, 7.8e-08 M: 7.8e-008 M
Protocol: as §1, §2, §3, §4

CC[C@H](C)[C@@H]1NC(=O)CNC(=O)[C@@H]2Cc3c([nH]c4ccccc34)SC[C@H](NC(=O)CNC1=O)C(=O)N[C@@H](CC(N)=O)C(=O)N1C[C@H](SCNC(C)=O)C[C@H]1C(=O)N[C@@H]([C@@H](C)[C@@H](O)CO)C(=O)N2 [Compound 8, SAcm-Pro-amanitin] (cyclo(CN[X3][Ile(4R-OH,5-OH)][Trp(2-yl)]GIG); thioether 1-5)
IC50 (Pol II): > 1000 nM | % viable cells (CHO cells; 1e-005 M, listed as SAcm-Pro-amanitin (8)): 90% and 99% | % viable cells (CHO cells; 1.25e-006 M, listed as SAcm-Pro-amanitin (8)): 85% and 92% and 106% | % viable cells (CHO cells; 1.56e-007 M, listed as SAcm-Pro-amanitin (8)): 94% and 93% and 113% | % viable cells (CHO cells; 2e-005 M, listed as SAcm-Pro-amanitin (8)): 110% and 105% and 99% | % viable cells (CHO cells; 2.5e-006 M, listed as SAcm-Pro-amanitin (8)): 87% and 92% and 105% | % viable cells (CHO cells; 3.125e-007 M, listed as SAcm-Pro-amanitin (8)): 88% and 93% and 110% | % viable cells (CHO cells; 5e-006 M, listed as SAcm-Pro-amanitin (8)): 86% and 89% | % viable cells (CHO cells; 6.25e-007 M, listed as SAcm-Pro-amanitin (8)): 93% and 90% and 108%

CC[C@H](C)[C@@H]1NC(=O)CNC(=O)[C@@H]2Cc3c([nH]c4ccccc34)SC[C@H](NC(=O)CNC1=O)C(=O)N[C@@H](CC(N)=O)C(=O)N1C[C@H](N/C(N)=N/C(=O)OC(C)(C)C)C[C@H]1C(=O)N[C@@H]([C@@H](C)[C@@H](O)CO)C(=O)N2 [Compound 9, Boc-Gdn-Pro-amanitin] (cyclo(CN[X4][Ile(4R-OH,5-OH)][Trp(2-yl)]GIG); thioether 1-5)
IC50 (Pol II): > 600 nM | inhibitory effects (Pol II; up to 1 μM concentrations): did not exhibit any noticeable inhibitory effects | viability at 72 h, 1.25e-06 M [1]: 84% | viability at 72 h, 1.56e-07 M [1]: 87% | viability at 72 h, 2.5e-06 M [1]: 86% | viability at 72 h, 3.9e-08 M ([1]; 3.9e-008 M): 88% | viability at 72 h, 5e-06 M [1]: 86% | viability at 72 h, 6.25e-07 M [1]: 84% | viability at 72 h, 7.8e-08 M [1]: 85% | % viable cells (CHO cells; 1e-005 M, listed as Boc-Gdn-Pro-amanitin (9)): 103% and 98% and 119% | % viable cells (CHO cells; 1.25e-006 M, listed as Boc-Gdn-Pro-amanitin (9)): 89% and 100% | % viable cells (CHO cells; 1.56e-007 M, listed as Boc-Gdn-Pro-amanitin (9)): 97% | % viable cells (CHO cells; 2.5e-006 M, listed as Boc-Gdn-Pro-amanitin (9)): 100% | % viable cells (CHO cells; 3.125e-007 M, listed as Boc-Gdn-Pro-amanitin (9)): 82% and 90% and 103% | % viable cells (CHO cells; 3.9e-008 M, listed as Boc-Gdn-Pro-amanitin (9)): 102% | % viable cells (CHO cells; 5e-006 M, listed as Boc-Gdn-Pro-amanitin (9)): 104% | % viable cells (CHO cells; 6.25e-007 M, listed as Boc-Gdn-Pro-amanitin (9)): 102% | % viable cells (CHO cells; 7.8e-008 M, listed as Boc-Gdn-Pro-amanitin (9)): 101%

CC[C@H](C)[C@@H]1NC(=O)CNC(=O)[C@@H]2Cc3c([nH]c4ccccc34)SC[C@H](NC(=O)CNC1=O)C(=O)N[C@@H](CC(N)=O)C(=O)N1C[C@H](NC(=O)OC)C[C@H]1C(=O)N[C@@H]([C@@H](C)[C@@H](O)CO)C(=O)N2 [Compound 32, MeOCONH-Pro-amanitin] (cyclo(CN[X5][Ile(4R-OH,5-OH)][Trp(2-yl)]GIG); thioether 1-5)
viability at 72 h, 1e-05 M ([1]; 1e-005 M): 86% | viability at 72 h, 1.25e-06 M [1]: 89% | viability at 72 h, 1.56e-07 M [1]: 88% | viability at 72 h, 2e-05 M ([1]; 2e-005 M): 99% | viability at 72 h, 2.5e-06 M [1]: 88% | viability at 72 h, 3.125e-07 M ([1]; 3.125e-007 M): 89% | viability at 72 h, 5e-06 M [1]: 92% | viability at 72 h, 6.25e-07 M [1]: 91% | viability at 72 h, 7.8e-08 M [1]: 88% | % viable cells (CHO cells; 1e-005 M, listed as MeOCOHN-Pro-amanitin (32)): 96% | % viable cells (CHO cells; 1.25e-006 M, listed as MeOCOHN-Pro-amanitin (32)): 93% | % viable cells (CHO cells; 1.56e-007 M, listed as MeOCOHN-Pro-amanitin (32)): 87% and 96% | % viable cells (CHO cells; 2e-005 M, listed as MeOCOHN-Pro-amanitin (32)): 103% and 102% | % viable cells (CHO cells; 3.125e-007 M, listed as MeOCOHN-Pro-amanitin (32)): 87% and 94% | % viable cells (CHO cells; 5e-006 M, listed as MeOCOHN-Pro-amanitin (32)): 87% | % viable cells (CHO cells; 6.25e-007 M, listed as MeOCOHN-Pro-amanitin (32)): 98% | % viable cells (CHO cells; 7.8e-008 M, listed as MeOCOHN-Pro-amanitin (32)): 97%
